Test results: patent US10278971B2, “Fluorocyclopentenylcytosine methods of use” (Rexahn Pharmaceuticals, Inc., priority 2015, dated 2019)
Where two headings read alike, the source gives them in different places.

What was measured:
H460 = assay: Cell cycle distribution by flow cytometry (PI); type: cell-based, human; settings: H460, 1 μM, 24 hour exposure
Description: The effect of RX-3117 on cell cycle regulation and cell death in human non-small cell lung cancer (NSCLC) cell lines A549 (adenocarcinoma), SW1573 (alveolar carcinoma) and SW1573/G- (SW1573 cell line resistant to gemcitabine) and H460 (large cell carcinoma) was assessed. The A549 and H460 cell lines were obtained from American Type Culture Collection (Manassas, Va., USA). The SW1573 cell line, obtained from Dr. Johan van Rijn (see Keiser et al., Cancer Research, 49:2988-2993 (1989)), also served as the parental cell line for SW1573/G-. A549, SW1573, and SW1573/G- and H460 were kept in exponential growth in T25 flasks (Greiner Bio-One GmbH, Frickenhausen, Germany) and cultured in Dulbecco's minimal essential medium (DMEM) or RPMI 1640 (A549) supplemented with 10% heat-inactivated fetal bovine serum (FBS) 1% streptomycin and penicillin 20 mM HEPES and maintained in 37° C. water saturated atmospheres of 5% CO2. For the cell cycle distribution, 1.5×10^5 cells were seeded in a T25 flask (Greiner Bio-One GmbH) and cultured for 72 hours after which 1 μM of RX-3117 was added and incubated for 24 hours. The cells were then harvested. After the treatment, the medium was collected in a 15 ml tube (Greiner Bio-One GmbH). […] The cells stained with the PI solution were analyzed by FACSCalibur™ (BD Biosciences, Mount View, Calif., USA). Data was analyzed with CellQuest™ Pro software.

[1] = First-in-human study: pharmacokinetics, safety and tolerability; type: in vivo; settings: for Cmax / Tmax / half-life / bioavailability: both sexes, human, plasma; for bioavailability: n=3, read-out: absolute bioavailability (F)
Description: In a first-in-human, open-label, exploratory study, the pharmacokinetics, safety and tolerability of RX-3117 were evaluated. The study duration was 14-15 days (7-day screening period; 3-day treatment period; 4 (+1)-day safety follow-up period). Nine adult male and female subjects with histologically confirmed, solid tumors enrolled in and completed the study. The subjects received RX-3117 (n=3 subjects per dose) as a single oral dose (50 mg or 100 mg) or a single intravenous dose (20 mg).

[2] = test system: advanced malignant tumors; assay: Efficacy in subjects with advanced malignant tumors; type: in vivo, human; settings: 48 subjects enrolled
Description: The efficacy, safety and tolerability of RX-3117 at various doses and frequencies were evaluated (see Example 4, above). Subjects with advanced malignant tumors were administered capsules containing RX-3117 at various doses, from TIWK to 7 times per week for 3 weeks with 1 week off during each 4-week cycle. Dose escalation begins with an accelerated design treating 1 subject per dose (Simon et al., J. Natl. Cancer Inst., 89(15):1138-47 (1997) followed by a standard 3+3 design using a modified Fibonacci sequence after the occurrence of a single related Grade 2 or greater adverse event. Table 4 (above) summarizes the dosing schedule.

PCFT = PCFT mediated transport of radiolabeled MTX; type: cell-based, human; settings: CEM cells, 24 hr; RX-3117 29.6 μM; DAC positive control
Description: In this study, the following cell lines were used: (1) CCRF-CEM cells and its MTX resistant variant CEM-MTX, characterized by a deficiency of the reduced folate carrier (RFC) (Jansen G., et al., JBC 273 (1998) 30189-30198). The PCFT gene in CEM cells is highly methylated. (Gonen N., et al., BBRC 376 (2008) 787-92.); (2) CEM cells cultured in RPMI medium with 10% fetal bovine serum (FBS); and (3) A549 and SW1573 non-small cell lung cancer (NSCLC) and A2780 ovarian cancer cell lines cultured in DMEM medium with 10% FBS.
MTX transport was measured using radiolabeled MTX in CEM wild type and CEM-MTX cell lines. CEM cells have a high RFC activity. CEM-MTX are completely deficient in RFC-mediated transport. CEM cells have a highly methylated PCFT transporter and a very low PCFT mediated transport (Gonen N., et al., BBRC 376 (2008) 787-92). MTX transport at pH 7.4 is predominantly RFC mediated and less than 2% by PCFT. Folic acid was used to inhibit PCFT mediated transport. […] CEM and CEM-MTX cells were exposed to 29.6 μM RX-3117 and to 0, 19 μM aza-CdR as a positive control. MTX transport was measured after 24 hr to the drugs in a 3 minutes uptake assay using 2 μM [3′,5,′7-3H]-MTX.

## Nc1ccn([C@@H]2C(F)=C(CO)[C@@H](O)[C@H]2O)c(=O)n1 [RX-3117, 4-amino-1-((1S,4R,5S)-2-fluoro-4,5-dihydroxy-3-hydroxymethyl-cyclopent-2-enyl)-1H-pyrimidin-2-one]
H460
  accumulation of cells in the G1 phase: induced accumulation
  increased accumulation of cells in the G1 phase: 20-40%
[1]; 20 mg intravenous vs 50 and 100 mg oral
  increase of intravenous Cmax over the peak concentrations of the oral doses: ~4 fold
[1]; single intravenous dose 20 mg
  Cmax: 1140 ng/mL
[1]; single intravenous dose 20 mg, read-out: Tmax
  Tmax: 0.25 h
[1]; single oral dose 50 mg
  Cmax: 303 ng/mL
  half-life: 13.9 h
  bioavailability: 55.7%
[1]; single oral dose 50 mg, read-out: mean Tmax
  Tmax: 2.16 h
[1]; single oral dose 100 mg
  Cmax: 311 ng/mL
  half-life: 20.9 h
  bioavailability: 33.4%
[1]; single oral dose 100 mg, read-out: mean Tmax
  Tmax: 2.49 h
[1]; single 50 or 100 mg oral or 20 mg intravenous dose
  adverse events (AE, TEAE, SAE): No adverse event
[1]; single 50 or 100 mg oral or 20 mg intravenous dose, all subjects
  safety and tolerability: safe and well-tolerated
[2]; various oral doses and frequencies
  subjects with stable disease for 1 to 10 cycles: Seventeen
[2]; pancreatic, breast and mesothelioma cancers
  subjects with tumor burden reduction: 3 subjects
PCFT
  increase of PCFT mediated transport of MTX: 4 fold
